Measured values taken from article PMC10906037, “Highly Enantioselective Catalysis by Enzyme Encapsulated in Metal Azolate Frameworks with Micelle-Controlled Pore Sizes” (ACS Central Science, 2024).

Target: T1, lipase CAL-B (Moesziomyces antarcticus, UniProt P41365)
T1 sequence (P41365 26-342): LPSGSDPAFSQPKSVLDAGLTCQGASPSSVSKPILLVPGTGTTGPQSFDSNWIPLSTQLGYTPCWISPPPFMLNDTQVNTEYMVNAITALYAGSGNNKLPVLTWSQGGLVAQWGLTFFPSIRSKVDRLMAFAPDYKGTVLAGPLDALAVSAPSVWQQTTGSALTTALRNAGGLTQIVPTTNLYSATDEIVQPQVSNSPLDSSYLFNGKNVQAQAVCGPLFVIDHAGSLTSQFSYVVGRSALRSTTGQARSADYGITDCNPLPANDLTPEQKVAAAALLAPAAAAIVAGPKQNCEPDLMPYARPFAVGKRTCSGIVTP
Experiment: kinetic resolution, yield
Type: biochemical
Conditions: free CAL-B; substrate not given

SMILES: CC(=O)O[C@H](C)c1cccc2ccccc12 [compound 8, product 8]
- kinetic resolution, yield: it resulted in a notably lower yield in comparison to free CAL-B
